The record followed here is patent US20220370642A1, “METHODS OF DETECTING NEUROLOGICAL DISORDERS VIA BINDING TO PHOSPHORYLATED TAU PROTEIN” (Amydis, Inc., priority 2019, published 2022).

The experiment deals with hyperphosphorylated 3RTau. The experiment is described as follows: Tau protein retinal staining: colocalization of Compound 5 with 3RTau antibody in retinal sections (confocal fluorescence). The experiment is classed as binding, mice. To be noted: for Pearson correlation coefficient (PCC) of colocalization with 3RTau antibody: Image J analysis, -1=complete anti-colocalization, 0=non colocalization, 1=complete colocalization. Here is the method:
Retinas of different age of three-repeat tau (“3RTau”) mice (3 months, 6 months and 12 months) were mounted on slides. The retina were washed with PBS 2 times for 5 minutes. A solution of 98% formic acid was added—5 minutes for antigen retrieval. The sampled were washed with distilled water—2 times for 5 minutes. The samples were equilibrated in 1×PBS for 15 minutes, then blocked with 10% goat/donkey serum in 1×PBST (depending on antibodies) for 1 hour. The samples were then incubated with three-repeat tau antibody in 10% goat serum in 1×PBST at 4 degree C. overnight, then rinsed with 1×PBST 3 times for 5 minutes each. Samples were incubated with secondary antibody (Alexa Fluor 568 Anti mouse) in 1×PBST for 1 hour, then covered with foil, then rinsed with 1×PBST 3 times for 5 minutes each. Samples were stained with Compound 5 working solution for 30 minutes at room temperature, covered in foil, and washed with 1×PBS 3 times for 5 minutes each. Samples were stained with DAPI (300 nM or 100 ng/mL) in dark for 10 minutes, then tissues were washed 3×10 minutes with PBS. Antifade DAKO mounting medium was added, and coverslip and kept under foil until imaging. Images were obtained using a Leica confocal microscope.
Fluorescent imaging study was conducted on a Leica DMI 4000B microscope (Leica, Germany) equipped with a TCS SPE camera and Leica 10, 20 and 40× objectives. The following lasers were used to visualize fluorescent probes pertaining to DAPI (blue, nuclear stain), Compound 5 (green) and 3RTau (red): 408, 488 and 568 nm. Z-stacked images were taken at 40× at 0.5 μm increments to visualize the entire thickness of the tissue.

For `N#C/C(=C\c1ccc2cc(N3CCCCC3)ccc2c1)C(=O)NCC(O)CO` (stereo not drawn) [Compound 5], the “Pearson correlation coefficient (PCC) of colocalization with 3RTau antibody” value by setting is: (3RTau mouse retinal section) 0.67; (control mouse retinal section) 0.04. Also, the “colocalization with 3Rtau immunoreactivity in retina (immunostaining)” value (3RTau transgenic mice retina, 3, 6 and 12 months) is “colocalizes”.
